# From patent US20230172921A1, “LERIGLITAZONE FOR TREATING LUNG INFLAMMATION AND INTERSTITIAL LUNG DISEASE” (Minoryx Therapeutics S.L., priority 2020, published 2023)
# Where “and” joins values, the source holds several entries; their conditions need not be identical. Equal values may be shown once. Where a name gives a salt, the structure may show the parent alone.
# Key:
# [1] = Lung/blood distribution ratio in rat; type: in vivo; conditions: lung and blood
# [2] = system: LPS induced acute lung injury (ALI) model; experiment: LPS induced acute lung injury model in mouse; type: in vivo; conditions: for CD45+ % Decrease vs vehicle / CD45+ Mean / IL-6 % Decrease vs vehicle / IL-6 Mean / IL-12p40 % Decrease vs vehicle / IL-12p40 Mean / IP-10 % Decrease vs vehicle / IP-10 Mean / MIG % Decrease vs vehicle / MIG Mean / Neutrophils % Decrease vs vehicle / Neutrophils Mean / RANTES % Decrease vs vehicle / RANTES Mean / T cells % Decrease vs vehicle / T cells Mean / TNF % Decrease vs vehicle / TNF Mean / Total Protein in BALF % Decrease vs vehicle / Total Protein in BALF Mean: BALF Day 3; for decrease in neutrophil recruitment in the alveoli / decrease in neutrophil recruitment in the interstitium / reduction in mononuclear cell infiltration in the perivascular/peribronchiolar space / reduction of septal thickening in the alveoli: lung H&E histopathology score; for decrease in neutrophil recruitment in the alveoli / decrease in neutrophil recruitment in the interstitium / reduction in mononuclear cell infiltration in the perivascular/peribronchiolar space: FIG. 21; for reduction of septal thickening in the alveoli: FIG. 22
# Experimental: Table 2 summarizes the groups tested in the LPS induced acute lung injury (ALI) model study in mice. [table] Briefly, C57Bl/6 7-8 week old mice were exposed to lipopolysaccharide (LPS) oral aspiration (5 mg/Kg). The animals were treated orally with either vehicle, M3 (50 mg/Kg, or MIN-102 at different doses 25 and 50 mg/Kg) bid from Day −1 to Day 2, 6-8 h apart and QD on Day 3 1 h before euthanasia. On Day 3 protein content, cytokine assessment and leukocyte count by FACS analysis were performed in the bronchoalveolar lavage fluid (BALF). The results are shown in FIGS. 11-20, and Tables 3 and 4. The lungs were collected, embedded and processed for H&E histology.
# [3] = system: Macrophages exposed to SARS-CoV-2; experiment: Cytokine production in macrophages in the presence of SARS-CoV-2 (Luminex); type: cell-based; conditions: macrophages exposed to SARS-CoV-2, supernatant 24 h post-infection
# [4] = Unbound fraction in human plasma; type: in vitro ADME
# [5] = maximal over doses 25 and 50 mg/kg, BALF
smiles,measurement,setting,value
"CC(O)c1ccc(CCOc2ccc(CC3SC(=O)NC3=O)cc2)nc1 (racemic) [MIN-102, 5-[[4-[2-[5-(1-hydroxyethyl)pyridin-2-yl]ethoxy]phenyl]methyl]-1,3-thiazolidine-2,4-dione hydrochloride]",Kp,[1],0.83
same,CD45+ % Decrease vs vehicle,[2]; 25 mg/kg PO BID,52.36%
same,CD45+ Mean,[2]; 25 mg/kg PO BID,462941 cells/ml BALF
same,IL-6 % Decrease vs vehicle,[2]; 25 mg/kg PO BID,76.17%
same,IL-6 Mean,[2]; 25 mg/kg PO BID,116.2 pg/mL
same,IL-12p40 % Decrease vs vehicle,[2]; 25 mg/kg PO BID,55.14%
same,IL-12p40 Mean,[2]; 25 mg/kg PO BID,15.48 pg/mL
same,IP-10 % Decrease vs vehicle,[2]; 25 mg/kg PO BID,47.55%
same,IP-10 Mean,[2]; 25 mg/kg PO BID,627.6 pg/mL
same,MIG % Decrease vs vehicle,[2]; 25 mg/kg PO BID,50.52%
same,MIG Mean,[2]; 25 mg/kg PO BID,1369 pg/mL
same,Neutrophils % Decrease vs vehicle,[2]; 25 mg/kg PO BID,56.41%
same,Neutrophils Mean,[2]; 25 mg/kg PO BID,280504 cells/ml BALF
same,RANTES % Decrease vs vehicle,[2]; 25 mg/kg PO BID,61.57%
same,RANTES Mean,[2]; 25 mg/kg PO BID,21.68 pg/mL
same,T cells % Decrease vs vehicle,[2]; 25 mg/kg PO BID,43.43%
same,T cells Mean,[2]; 25 mg/kg PO BID,20898 cells/ml BALF
same,TNF % Decrease vs vehicle,[2]; 25 mg/kg PO BID,59.19%
same,TNF Mean,[2]; 25 mg/kg PO BID,12.85 pg/mL
same,Total Protein in BALF % Decrease vs vehicle,[2]; 25 mg/kg PO BID,46.00%
same,Total Protein in BALF Mean,[2]; 25 mg/kg PO BID,245.3 µg/mL
same,CD45+ % Decrease vs vehicle,[2]; 50 mg/kg PO BID,49.83%
same,CD45+ Mean,[2]; 50 mg/kg PO BID,487506 cells/ml BALF
same,IL-6 % Decrease vs vehicle,[2]; 50 mg/kg PO BID,87.13%
same,IL-6 Mean,[2]; 50 mg/kg PO BID,62.78 pg/mL
same,IL-12p40 % Decrease vs vehicle,[2]; 50 mg/kg PO BID,71.41%
same,IL-12p40 Mean,[2]; 50 mg/kg PO BID,9.868 pg/mL
same,IP-10 % Decrease vs vehicle,[2]; 50 mg/kg PO BID,55.42%
same,IP-10 Mean,[2]; 50 mg/kg PO BID,731.5 pg/mL
same,MIG % Decrease vs vehicle,[2]; 50 mg/kg PO BID,73.18%
same,MIG Mean,[2]; 50 mg/kg PO BID,741.7 pg/mL
same,Neutrophils % Decrease vs vehicle,[2]; 50 mg/kg PO BID,57.85%
same,Neutrophils Mean,[2]; 50 mg/kg PO BID,271223 cells/ml BALF
same,RANTES % Decrease vs vehicle,[2]; 50 mg/kg PO BID,79.24%
same,RANTES Mean,[2]; 50 mg/kg PO BID,11.71 pg/mL
same,T cells % Decrease vs vehicle,[2]; 50 mg/kg PO BID,42.49%
same,T cells Mean,[2]; 50 mg/kg PO BID,21245 cells/ml BALF
same,TNF % Decrease vs vehicle,[2]; 50 mg/kg PO BID,68.26%
same,TNF Mean,[2]; 50 mg/kg PO BID,10 pg/mL
same,Total Protein in BALF % Decrease vs vehicle,[2]; 50 mg/kg PO BID,49.50%
same,Total Protein in BALF Mean,[2]; 50 mg/kg PO BID,229.4 µg/mL
same,decrease of total number of leukocytes (CD45 positive cells) vs vehicle group,"[2]; in all doses (25 and 50 mg/kg), BALF",50%
same,decrease in neutrophil recruitment in the alveoli,[2],53%
same,decrease in neutrophil recruitment in the interstitium,[2],48%
same,reduction in mononuclear cell infiltration in the perivascular/peribronchiolar space,[2],31%
same,reduction of septal thickening in the alveoli,[2],43%
same,"T cells, maximal reduction vs vehicle group",[2]; [5],around 47%
same,"neutrophils, maximal reduction vs vehicle group",[2]; [5],around 58%
same,effect on IL2 secretion,[3],No effect
same,effect on IL7 secretion,[3],No effect
same,reduction of MIP1-α secretion,[3],90%
same,Unbound % in Plasma (human),[4],3.5%
"CC(=O)c1ccc(CCOc2ccc(CC3SC(=O)NC3=O)cc2)nc1 (stereo not shown) [Compound M3, 5-[[4-[2-[5-Acetylpyridin-2-yl]ethoxy]phenyl]methyl]-1,3-thiazolidine-2,4-dione]",CD45+ % Decrease vs vehicle,[2]; 50 mg/kg PO BID,67% and 67.35%
same,CD45+ Mean,[2]; 50 mg/kg PO BID,317269 cells/ml BALF
same,IL-6 % Decrease vs vehicle,[2]; 50 mg/kg PO BID,96.86%
same,IL-6 Mean,[2]; 50 mg/kg PO BID,15.29 pg/mL
same,IL-12p40 % Decrease vs vehicle,[2]; 50 mg/kg PO BID,86.71%
same,IL-12p40 Mean,[2]; 50 mg/kg PO BID,4.586 pg/mL
same,IP-10 % Decrease vs vehicle,[2]; 50 mg/kg PO BID,79.17%
same,IP-10 Mean,[2]; 50 mg/kg PO BID,1045 pg/mL
same,MIG % Decrease vs vehicle,[2]; 50 mg/kg PO BID,90.75%
same,MIG Mean,[2]; 50 mg/kg PO BID,256.2 pg/mL
same,Neutrophils % Decrease vs vehicle,[2]; 50 mg/kg PO BID,72% and 72.06%
same,Neutrophils Mean,[2]; 50 mg/kg PO BID,179793 cells/ml BALF
same,RANTES % Decrease vs vehicle,[2]; 50 mg/kg PO BID,93.19%
same,RANTES Mean,[2]; 50 mg/kg PO BID,3.838 pg/mL
same,T cells % Decrease vs vehicle,[2]; 50 mg/kg PO BID,74% and 74.14%
same,T cells Mean,[2]; 50 mg/kg PO BID,9554 cells/ml BALF
same,TNF % Decrease vs vehicle,[2]; 50 mg/kg PO BID,68.26%
same,TNF Mean,[2]; 50 mg/kg PO BID,10 pg/mL
same,Total Protein in BALF % Decrease vs vehicle,[2]; 50 mg/kg PO BID,63% and 63.24%
same,Total Protein in BALF Mean,[2]; 50 mg/kg PO BID,167 µg/mL
same,reduction of B cells,"[2]; 50 mg/kg, BALF",52%
same,decrease in neutrophil recruitment in the alveoli,[2],64%
same,decrease in neutrophil recruitment in the interstitium,[2],62%
same,reduction in mononuclear cell infiltration in the perivascular/peribronchiolar space,[2],40%
same,reduction of septal thickening in the alveoli,[2],79%
"CCc1ccc(CCOc2ccc(CC3SC(=O)NC3=O)cc2)nc1 (stereo not shown) [Pioglitazone, reference compound]",Kp,[1],0.3
same,Unbound % in Plasma (human),[4],0.2%
